Square brackets hold non-standard residues; d marks the D form. Peptide text beside a SMILES is read from it. * marks the point of attachment. Cbz = O=C(OCc1ccccc1)*

The test system of data set [1] is peptide amidase. Put plainly: Deamidation of tripeptides containing D-amino acids (stereospecificity). It is filed as biochemical, orange. Particulars: 12 h. As for the experimental part: Column: RP 18, 0.1 ml/min
Eluent: Solution of TBA (tetrabutylammonium hydrogen sulfate) and […]

The test system of data set [2] is peptide amidase. Put plainly: Enzymatic cleavage of N-terminal protected dipeptide amides. It is filed as biochemical, orange. Particulars: peptide amidase. An excerpt: The results in Table 7 were obtained using an eluent: TBA/acetonitrile 60/40 (% volume)
Data set [3] deals with peptide amidase. Put plainly: Enzymatic reaction of peptide amides with a chain length of greater than three amino acids. It is filed as biochemical, orange. Here is the method:
Enzymatic reaction of peptide amides with a chain length of greater than
three amino acids. Reaction conditions: 10 mM substrate, 40 μg/ml
50 mM tris/HCL, pH 7.0, temp. 30° C.

The subject of data set [4] is peptide amidase. Put plainly: Continuous deamidation of H-Tyr-Arg-NH2 in an enzyme membrane reactor (EMR). It is filed as biochemical, orange. The note with it: 20 mM substrate, residence time 30 minute, enzyme 0.15 mg/ml. Here is the method:
A continuous process for deamidation of H-Tyr-Arg-NH2 was carried out in an EMR. The conditions for operating the EMR (corresponding to a continuously operated stirred vessel reactor) permitted a more economic utilization of the enzyme because the enzyme was removed by ultrafiltration before the product was purified. The process was carried out under the following conditions: […]

Data set [5] deals with peptide amidase. Put plainly: Effect of organic solvents on enzyme stability. Particulars: 27.8% solvent, 30° C.; acetone, acetonitrile, DMF, ethanol compared. It is filed as biochemical, orange. Here is the method: Ten identical mixtures of the following composition:
50 μl of enzyme solution (40 μg of protein/mixture)
were incubated at 30° C. At various times, the reaction was initiated by the addition of substrate (Z-Gly-Tyr-NH2 in 100 μl of buffer/solvent 1:1, corresponding to 10 mM/mixture) and the activity was measured.

The subject of data set [6] is peptide amidase purified from orange flavedo. Put plainly: Cleavage of peptide amides with free N termini and of side chain amides. It is filed as biochemical. The note with it: amides of amino acid side chains (Asn; Gln); amino acid analyzer; 10000 µM. Here is the method:
Enzyme activity measured for the deamidation of dipeptide amides with free N termini (e.g. H-Tyr-Arg-NH2) was considerably higher than for peptide amides with an aromatic protective group, such as Z- or Bz-. Activity levels were up to 100 times higher than those measured with protected peptide amides.
Amides of amino acid side chains (Asn; Gln) Analysis
Eluent (HPLC): TBA/acetonitrile 95/5 or 96/4(*)
Reaction conditions: 10 mM substrate; 50 μg/ml peptide amidase; 50 mM
tris/HCl; pH 7.0; temperature 30° C.

A short description of data set [7]: Comparison of the activity of peptide amidase and CPD-Y (pH-stat). It is filed as biochemical. Particulars: for Amino-acid amidase activity (percent) / Amino-acid amidase activity (yes/no): strength varies depending on the amide of the amino acid. As for the experimental part: The enzyme has neither peptidase activity nor amino acid amidase activity, as is evident from the results presented in Table 1 comparing the activities of a purified peptide amidase to carboxypeptidase Y in both its native and modified form.
Comparison of the activity of peptide amidase and CPD-Y;
Conditions for the determination of peptide amidase activity:
30 mM of different substrates, pH 9, 22° C., pH-stat
For the purposes of this disclosure, specific activity is defined as follows: 1 U/mg of enzyme can convert 1 μmol of substrate per minute.

The mark [8] stands for this setting: peptide amidase, 6 h, 10000 µM, pH 7.

Regarding `C[C@@H](NC(=O)[C@@H]1CCCN1C(=O)[C@@H](N)CCCNC(=N)N)C(N)=O` [H--Arg--Pro--D-Ala--NH2] (H-Arg-Pro-[dA]-NH2), in the data set on peptide amidase [1], the Conversion is given as 0 %/12 hours.

For the molecule `CC(C)C[C@H](NC(=O)CNC(c1ccccc1)(c1ccccc1)c1ccccc1)C(=O)N[C@H](C(N)=O)C(C)C` [Trt--Gly--Leu--Val--NH2], the Yield with peptide amidase [2] was found to be 95%; in the data set with peptide amidase [3] (setting [8]), 100 %/6 h.

On to `CC(C)C[C@H](NC(=O)[C@@H]1CCCN1C(=O)OCc1ccccc1)C(=O)NCC(N)=O` [Z--Pro--Leu--Gly--NH2] (Cbz-Pro-Leu-Gly-NH2), for which the Yield in the data set with peptide amidase [2] is listed as 90%; in the data set on peptide amidase [3] (setting [8]) it was 100 %/6 h.

Consider `N=C(N)NCCC[C@H](NC(=O)[C@@H](N)Cc1ccc(O)cc1)C(N)=O` [Tyr--Arg--NH2, H-Tyr-Arg-NH2], for which, in the data set with peptide amidase [4], the Mean conversion was determined as 92%.

For `NCC(=O)N[C@@H](Cc1ccccc1)C(=O)N[C@H](Cc1ccccc1)C(N)=O` [H--Gly--Phe--D-Phe--NH2] (H-Gly-Phe-[dF]-NH2), the Conversion in the data set with peptide amidase [1] came to 0 %/12 hours.

With `CN(C)C=O` [DMF, dimethylformamide], the “decrease in enzyme activity on incubation with solvent (in words)” value with peptide amidase [5] is listed as “smallest decrease in enzyme activity”.

The molecule H--Ala--Gln registered a Conversion in data set [6] of 0%.

The molecule `N=C(N)NCCC[C@H](NC(=O)[C@@H]1CCCN1C(=O)OCc1ccccc1)C(=O)NCC(N)=O` [Z--Pro--Arg--Gly--NH2] (Cbz-Pro-Arg-Gly-NH2) displayed a Yield in the data set with peptide amidase [3] (setting [8]) of 100 %/6 h.

In data set [6], H--Leu--Arg--Asn registered a Conversion of 0%.

On to `CC(C)C[C@H](NC(=O)CNC(=O)CNC(=O)OCc1ccccc1)C(N)=O` [Z--Gly--Gly--Leu--NH2] (Cbz-Gly-Gly-Leu-NH2), for which the Yield is listed as 100% with peptide amidase [2] and 100 %/6 h in the data set on peptide amidase [3] (setting [8]).

Molecule Boc--cys(bzl)--Pro--Arg--Gly--NH2 had a Yield in the data set on peptide amidase [3] (10 mM substrate, 40 μg/ml peptide amidase, 50 mM tris/HCL, pH 7.0, 30° C., 360 min) of 90 %/6 h.

Turning to `NCC(=O)N[C@H](Cc1ccccc1)C(=O)N[C@@H](Cc1ccc(O)cc1)C(N)=O` [H--Gly--D-Phe--Tyr--NH2] (H-Gly-[dF]-Tyr-NH2), in the data set on peptide amidase [1], the Conversion amounted to 100 %/12 hours.

`CC(C)[C@H](NC(=O)OCc1ccccc1)C(=O)NCC(=O)N[C@@H](C)C(=O)N1CCC[C@H]1C(N)=O` [Z--Val--Gly--Ala--Pro--NH2] (Cbz-VGAP-NH2): in the data set with peptide amidase [3] (setting [8]), the Yield was determined as 0 %/6 h.

Turning to H--Ala--Asn, the Conversion in data set [6] amounted to 0%.

B1: Carboxypeptidase Y [CPD-Y (native)] (protein, UniProt P00729 112-532, looked up)
Carboxypeptidase Y: KIKDPKILGIDPNVTQYTGYLDVEDEDKHFFFWTFESRNDPAKDPVILWLNGGPGCSSLTGLFFELGPSSIGPDLKPIGNPYSWNSNATVIFLDQPVNVGFSYSGSSGVSNTVAAGKDVYNFLELFFDQFPEYVNKGQDFHIAGESYAGHYIPVFASEILSHKDRNFNLTSVLIGNGLTDPLTQYNYYEPMACGEGGEPSVLPSEECSAMEDSLERCLGLIESCYDSQSVWSCVPATIYCNNAQLAPYQRTGRNVYDIRKDCEGGNLCYPTLQDIDDYLNQDYVKEAVGAEVDHYESCNFDINRNFLFAGDWMKPYHTAVTDLLNQDLPILVYAGDKDFICNWLGNKAWTDVLPWKYDEEFASQKVRNWTASITDEVAGEVKSYKHFTYLRVFNGGHMVPFDVPENALSMVNEWIHGGFSL
Regarding B1, in data set [7], the Peptidase activity result was “yes”, the “Amino-acid amidase activity (percent)” value was 0-92% and the “Amino-acid amidase activity (yes/no)” value was “yes”. Moreover, in data set [7] (30 mM of different substrates, pH 9, 22° C., pH-stat), the Specific activity turned out to be 0.0082 U/mg protein.

B2: Carboxypeptidase Y [CPD-Y (modified)] (protein, UniProt P00729 112-532, looked up)
Carboxypeptidase Y: B1 Carboxypeptidase Y
modifications: chemically modified
notes: carboxypeptidase Y in a chemically modified form
As to B2, in data set [7], the “Amino-acid amidase activity (percent)” value was 0-77% and the “Amino-acid amidase activity (yes/no)” value is on record as “yes”.

The values above are taken from patent publication US5369016A, “Peptide amidase and the use thereof” (Forschungszentrum Juelich GmbH, priority 1990, dated 1994).
